Results from ChEMBL document CHEMBL1201862, “PubChem BioAssay data set” (2004).
Calls of active or inactive are those of the source.

What was measured:
[1] = A cytotoxicity screen of small molecule inhibitors of the PhoP region in Salmonella typhi identified in the primary screen. [Related pubchem assays: 1850, 1864, 1985 ]; assay type: functional
Estrogen receptor = biological target: T1, Estrogen receptor (Homo sapiens, UniProt P03372);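 further: potency for inhibiting coactivator peptide recruitment to the receptor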
T1 sequence (P03372 whole entry): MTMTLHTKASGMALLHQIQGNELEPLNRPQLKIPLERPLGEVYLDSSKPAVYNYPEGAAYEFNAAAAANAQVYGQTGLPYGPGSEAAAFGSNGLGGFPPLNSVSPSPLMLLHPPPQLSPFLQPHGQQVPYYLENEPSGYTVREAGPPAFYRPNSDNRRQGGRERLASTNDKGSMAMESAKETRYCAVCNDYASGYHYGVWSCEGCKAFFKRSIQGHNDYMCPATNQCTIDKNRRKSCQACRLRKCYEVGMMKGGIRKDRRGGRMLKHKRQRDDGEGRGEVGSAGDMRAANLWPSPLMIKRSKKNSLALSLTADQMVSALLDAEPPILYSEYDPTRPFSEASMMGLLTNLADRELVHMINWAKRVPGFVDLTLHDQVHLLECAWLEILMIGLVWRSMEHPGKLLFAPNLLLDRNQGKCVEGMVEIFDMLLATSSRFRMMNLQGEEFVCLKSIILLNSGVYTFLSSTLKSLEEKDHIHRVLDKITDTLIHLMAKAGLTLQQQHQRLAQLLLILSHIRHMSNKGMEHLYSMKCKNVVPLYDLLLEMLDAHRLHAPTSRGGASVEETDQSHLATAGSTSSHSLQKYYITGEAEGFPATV

[2] = non-specific cell cytotoxicity, dose response, cytotoxicity control for PAX8 inhibitor project, plate reader, dry powder samples (AID 743021); assay type: functional, cell-based
[3] = biological target: ADP-ribosylation factor GTPase-activating protein 1 (Rattus norvegicus, UniProt Q62848); experiment: Fluorescence polarization-based biochemical high throughput dose response screening assay to identify inhibitors of ADP-ribosylation factor GTPase activating protein 1 (ARFGAP1).; assay type: functional
Protein RecA = biological target: T2, Protein RecA (Mycobacterium tuberculosis, UniProt P9WHJ3); experiment: Fluorescence Cell-Free Homogeneous Dose Retest to Identify Inhibitors of RecA-Intein Splicing Activity. [Related pubchem assays (depositor defined):AID2097, AID2223, AID489010, AID492950]; assay type: functional
T2 sequence (P9WHJ3 whole entry): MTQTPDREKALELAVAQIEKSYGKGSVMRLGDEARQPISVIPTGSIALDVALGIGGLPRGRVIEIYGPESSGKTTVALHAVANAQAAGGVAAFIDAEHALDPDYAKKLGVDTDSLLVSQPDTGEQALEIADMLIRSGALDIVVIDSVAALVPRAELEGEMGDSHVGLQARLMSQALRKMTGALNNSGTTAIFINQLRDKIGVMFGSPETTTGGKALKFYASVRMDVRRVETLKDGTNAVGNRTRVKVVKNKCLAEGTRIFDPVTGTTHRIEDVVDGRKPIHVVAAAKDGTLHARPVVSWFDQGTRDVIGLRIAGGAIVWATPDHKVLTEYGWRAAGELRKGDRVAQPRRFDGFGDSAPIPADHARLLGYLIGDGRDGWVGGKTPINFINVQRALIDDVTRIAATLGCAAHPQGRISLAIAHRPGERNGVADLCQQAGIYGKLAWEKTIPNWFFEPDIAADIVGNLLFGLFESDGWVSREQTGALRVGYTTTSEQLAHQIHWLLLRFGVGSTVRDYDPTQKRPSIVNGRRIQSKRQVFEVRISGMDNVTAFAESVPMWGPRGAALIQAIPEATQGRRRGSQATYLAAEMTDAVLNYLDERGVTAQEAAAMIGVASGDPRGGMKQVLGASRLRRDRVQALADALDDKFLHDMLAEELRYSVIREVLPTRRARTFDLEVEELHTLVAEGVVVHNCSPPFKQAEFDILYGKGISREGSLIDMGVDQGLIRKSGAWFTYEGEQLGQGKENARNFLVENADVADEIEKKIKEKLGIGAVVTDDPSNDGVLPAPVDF

[4] = Fluorescence-based cell-based high throughput dose response assay for inhibitors of the interaction of nucleotide-binding oligomerization domain containing 2 (NOD2) and the receptor-interacting serine-threonine kinase 2 (RIPK2).; assay type: functional; conditions: Homo sapiens
[5] = biological target: T3, Replicative DNA helicase DnaB (Mycobacterium tuberculosis, UniProt P9WMR3); experiment: DnaB intein splicing inhibitors, dose response, biochemical, cell-free fluorescence (AID 449749); assay type: functional
T3 sequence (P9WMR3 whole entry): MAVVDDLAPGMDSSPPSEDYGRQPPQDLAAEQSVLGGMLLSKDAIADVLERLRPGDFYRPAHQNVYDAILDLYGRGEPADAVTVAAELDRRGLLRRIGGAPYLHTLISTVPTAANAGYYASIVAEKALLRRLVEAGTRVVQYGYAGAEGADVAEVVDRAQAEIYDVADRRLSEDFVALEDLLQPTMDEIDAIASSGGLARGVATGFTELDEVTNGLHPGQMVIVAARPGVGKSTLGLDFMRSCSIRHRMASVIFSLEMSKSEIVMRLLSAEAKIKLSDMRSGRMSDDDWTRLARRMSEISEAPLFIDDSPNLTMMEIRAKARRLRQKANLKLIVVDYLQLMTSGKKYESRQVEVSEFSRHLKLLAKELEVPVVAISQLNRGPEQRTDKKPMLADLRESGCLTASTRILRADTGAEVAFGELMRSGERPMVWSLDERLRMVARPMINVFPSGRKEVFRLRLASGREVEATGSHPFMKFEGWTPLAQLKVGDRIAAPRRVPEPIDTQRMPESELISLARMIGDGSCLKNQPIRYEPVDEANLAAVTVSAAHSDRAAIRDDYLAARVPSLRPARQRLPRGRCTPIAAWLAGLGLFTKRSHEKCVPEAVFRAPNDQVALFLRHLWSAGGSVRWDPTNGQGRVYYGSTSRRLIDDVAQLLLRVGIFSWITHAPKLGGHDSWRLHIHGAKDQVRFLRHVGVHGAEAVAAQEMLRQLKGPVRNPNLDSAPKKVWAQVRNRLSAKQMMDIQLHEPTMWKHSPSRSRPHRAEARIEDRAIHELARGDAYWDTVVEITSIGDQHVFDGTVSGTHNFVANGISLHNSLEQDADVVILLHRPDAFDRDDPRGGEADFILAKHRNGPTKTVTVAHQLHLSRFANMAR

[6] = biological target: T4, Sentrin-specific protease 8 (Homo sapiens, UniProt Q96LD8); assay type: functional
T4 sequence (Q96LD8 whole entry): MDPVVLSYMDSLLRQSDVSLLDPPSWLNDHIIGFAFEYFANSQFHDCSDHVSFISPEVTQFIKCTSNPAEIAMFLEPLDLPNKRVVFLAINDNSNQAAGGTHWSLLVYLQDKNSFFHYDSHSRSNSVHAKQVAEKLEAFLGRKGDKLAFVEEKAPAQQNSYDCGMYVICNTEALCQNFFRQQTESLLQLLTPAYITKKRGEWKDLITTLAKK

[7] = biological target: T4, Sentrin-specific protease 8; assay type: functional; remark: listed apart in the source
[8] = Luminescence-based counterscreen assay for KLF5 inhibitors: dose response cell-based high throughput screening assay to identify cytotoxic compounds using the IEC-6 intestinal epithelial cell line. [Related pubchem assays: 1700 (Primary screen.), 1834 (Confirmation screen.), 1858 (Summary AID.), 1905 (Counterscreen.)]; assay type: functional
[9] = inhibitors of clade B AD8 Env fusion, dose response, cell-based, cherry-pick (AID 652062); assay type: functional;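 further: luciferase signal from cell-cell fusion driven by HIV-1 clade B AD8 Env; potency is for inhibitors of fusion seen as a drop in luminescence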
Paired box protein Pax-8 = Paired box protein Pax-8 (Homo sapiens, UniProt Q06710); experiment: inhibitors of PAX8-driven TPO luciferase reporter, dose response, RMG-I cells, cherry-pick (AID 687027); assay type: functional, cell-based;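 further: luciferase reporter driven by Pax8 target thyroperoxidase promoter measured by SteadyGlo luminescence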
[10] = biological target: T5, Heat shock factor protein 1 (Mus musculus, UniProt P38532); experiment: inhibition of MG132-induced HSE-luciferase signal, confirmation, cell-based, NIH3T3, luminescence, dose retest (AID 2382); assay type: functional;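 further: NIH3T3 fibroblasts with HSF1-driven luciferase reporter stressed by proteasome inhibitor MG132; luminescence from HSF1-driven luciferase expression after 8 hours of MG132 stress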
T5 sequence (P38532 whole entry): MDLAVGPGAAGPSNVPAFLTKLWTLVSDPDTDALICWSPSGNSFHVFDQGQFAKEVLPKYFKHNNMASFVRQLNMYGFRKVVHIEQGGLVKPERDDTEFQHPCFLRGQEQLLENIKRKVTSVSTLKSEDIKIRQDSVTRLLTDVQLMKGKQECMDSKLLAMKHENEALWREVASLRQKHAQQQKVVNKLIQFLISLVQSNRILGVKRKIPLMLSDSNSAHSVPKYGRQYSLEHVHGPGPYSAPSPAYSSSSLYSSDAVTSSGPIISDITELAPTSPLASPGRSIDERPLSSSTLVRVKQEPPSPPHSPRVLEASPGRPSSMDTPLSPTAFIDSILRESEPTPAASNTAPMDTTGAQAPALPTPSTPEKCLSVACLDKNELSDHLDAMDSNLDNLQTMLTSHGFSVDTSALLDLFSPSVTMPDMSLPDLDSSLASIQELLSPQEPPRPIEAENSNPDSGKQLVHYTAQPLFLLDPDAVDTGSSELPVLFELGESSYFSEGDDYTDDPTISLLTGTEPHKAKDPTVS

[11] = ZM109 Env clade C HIV-1 fusion inhibitors, dose response, HeLa effector, CEM target cells, luciferase, cherry-pick (AID 652058); assay type: functional, cell-based
[12] = off-target signal loss in HeLa-CEM21 co-culture – HeLa F-luc CTL cells, cherry-picked, counter-screen for HIV-1 Env fusion inhibitor project, dose response (AID 652040); assay type: functional, cell-based;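 further: potency for signal decrease marking cytotoxic or nonspecific inhibition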
[13] = inhibitors of HIV Env-driven cell fusion, dose response, cherry-pick (AID 652057); assay type: functional, cell-based
[14] = A Cell Based Secondary Assay To Explore Cytotoxicity of Compounds that Sensitize Mycobacterium Tuberculosis to Beta-Lactam Antibiotics.; assay type: functional
[15] = growth suppression of beta-catenin-knockout colon cells, dose response, cell-based, HCT116, human colon tumor (AID 1045); assay type: functional;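 further: HCT116 colon tumor cells with beta catenin knocked out; cells exposed to compound for 60 hours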
[16] = inhibitors of intracellular T. cruzi replication, confirmation, NIH3T3 host cells, beta-gal luminescence (AID 2044); assay type: functional, cell-based;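 further: intracellular parasites grown in NIH/3T3 mouse fibroblasts as host cells; luminescent beta-galactosidase reporter signal from transgenic T. cruzi replicating inside host cells; inhibitors lower the luminescence signal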
[17] = cytotoxicity toward NIH3T3 fibroblasts, dose response, counter-screen, cell-based, ATP luminescence, mouse fibroblasts (AID 2010); assay type: functional;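 further: cells exposed to compound for about 90 hours before reading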
[18] = growth suppression of PTEN-null colon cells, dose response, cell-based, HCT116 PTEN knockout (AID 1047); assay type: functional;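 further: HCT116 colon tumor cells with PTEN knocked out; cells exposed to compound for 60 hours before readout; potency for loss of cell viability measured by luminescence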
[19] = Luminescence Cell-Based Dose Response to Identify Activators of Luciferase Translation or Activity in H4-C Neuroglioblastoma Cells. [Related pubchem assays: 1829 (Project Summary), 1814 (Primary HTS)]; assay type: functional
[20] = Luminescence Cell-Based Dose Confirmation to Identify Activators of 5'UTR Stem-Loop Driven Alpha-Synuclein mRNA Translation in H4 Neuroglioblastoma Cells. [Related pubchem assays: 1829 (Project Summary), 1814 (Primary HTS)]; assay type: functional
H4 = experiment: Luminescence Cell-Based Dose Response HTS to Identify Activators of 5'UTR Stem-Loop Driven Prion Protein mRNA Translation in H4 Neuroglioblastoma Cells. [Related pubchem assays: 1829 (Project Summary), 1814 (Primary HTS)]; assay type: functional; conditions: Homo sapiens
[21] = Luminescence Cell-Based Dose Response to Identify Activators of 5'UTR Stem-Loop Driven Prion Protein mRNA Translation in H4-C Neuroglioblastoma Cells. [Related pubchem assays: 1829 (Project Summary), 1814 (Primary HTS)]; assay type: functional
[22] = Luminescence Cell-Based Dose Response HTS to Identify Activators of Luciferase Translation or Activity in H4 […] Cells. [Related pubchem assays: 1829 (Project Summary), 1814 (Primary HTS)]; assay type: functional

Chain of ADP-ribosylation factor GTPase-activating protein 1 (Q62848 whole entry): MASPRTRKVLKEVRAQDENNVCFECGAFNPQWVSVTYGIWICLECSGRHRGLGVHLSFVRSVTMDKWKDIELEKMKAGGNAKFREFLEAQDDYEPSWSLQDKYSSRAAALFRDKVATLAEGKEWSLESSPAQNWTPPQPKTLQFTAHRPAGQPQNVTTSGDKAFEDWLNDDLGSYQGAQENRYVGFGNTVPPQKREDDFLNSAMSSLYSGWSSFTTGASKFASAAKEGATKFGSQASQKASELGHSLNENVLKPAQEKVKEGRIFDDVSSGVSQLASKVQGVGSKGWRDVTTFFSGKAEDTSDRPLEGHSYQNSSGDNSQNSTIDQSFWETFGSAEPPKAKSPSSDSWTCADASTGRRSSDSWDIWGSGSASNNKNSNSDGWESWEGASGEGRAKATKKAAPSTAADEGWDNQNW
Chain of Paired box protein Pax-8 (Q06710 whole entry): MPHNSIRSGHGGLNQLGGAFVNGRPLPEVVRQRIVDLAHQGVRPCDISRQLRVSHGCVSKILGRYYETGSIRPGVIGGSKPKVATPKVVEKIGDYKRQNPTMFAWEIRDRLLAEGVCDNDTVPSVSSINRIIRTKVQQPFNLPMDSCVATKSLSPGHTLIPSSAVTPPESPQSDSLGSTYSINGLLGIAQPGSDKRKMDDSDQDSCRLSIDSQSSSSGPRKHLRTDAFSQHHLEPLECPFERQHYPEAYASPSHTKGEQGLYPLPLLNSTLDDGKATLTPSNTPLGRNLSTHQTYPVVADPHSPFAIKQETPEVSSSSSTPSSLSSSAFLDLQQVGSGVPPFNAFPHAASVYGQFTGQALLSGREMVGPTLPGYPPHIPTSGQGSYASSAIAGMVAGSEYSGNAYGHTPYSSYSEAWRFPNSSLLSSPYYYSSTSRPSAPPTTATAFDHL

## O=C(/C=C/c1c(F)cccc1Cl)N1CCOCC1
[1]
  EC50: > 50 µM (active)

## O=C(COC(=O)CCOc1ccccc1)NCc1ccco1
Estrogen receptor
  IC50: 16.6 µM (active)

## Cc1onc(-c2ccccc2Cl)c1C(=O)NCc1cccnc1
Estrogen receptor
  IC50: > 50 µM (not active)

## O=C(C[C@H]1C[C@@H]2c3cc(NC(=O)C4CCOCC4)ccc3O[C@@H]2[C@@H](CO)O1)NCc1ccc(Oc2ccccc2)cc1
[2]
  AC50: 65.1 µM (active)

## O=C(c1ccc2c3c(cccc13)CC2)C1CCCN(Cc2ncc[nH]2)C1 (stereo not drawn)
[1]
  EC50: > 50 µM (active)

## N#Cc1c(NC(=O)C2CC(c3c(F)cccc3Cl)=NO2)sc2c1CCC2 (stereo not drawn)
[3]
  IC50: 43.6 µM (inactive)

## O=C(Nc1ccc(F)cc1)c1nn(-c2ccccc2)c(=O)cc1Cl
Protein RecA
  EC50: 8.71 µM (active)
[4]
  IC50: 4.16 µM (active)
[5]
  AC50: 11.9 µM (active)

## O=S1(=O)NC2c3ccccc3CC2O1 (stereo not drawn)
[6]
  IC50: 19.5 µM (active)
[7]
  IC50: 9.78 µM (active)

## COc1cc(/C=N/O)ccc1OCc1ccc(C(=O)O)cc1
[8]
  IC50: > 39.8 µM (not active)
[9]
  AC50: 1.49 µM (active)
[2]
  AC50: 25.6 µM (active)
Paired box protein Pax-8
  AC50: 5.79 µM (active)
[10]
  EC50: 1.78 µM (active)
[11]
  AC50: 6.61 µM (active)
[12]
  AC50: 0.82 µM (active)
[13]
  AC50: 0.351 µM (active)

## CCSc1nnc(NC(=O)C2Cc3ccccc3CN2C(=O)c2ccco2)s1 (stereo not drawn)
[14]
  CC50: > 40 µM (active)
Estrogen receptor
  IC50: 7.47 µM (active)

## CCn1cnc2cc(NCc3ccc(Br)cc3)ccc21
[1]
  EC50: > 50 µM (active)

## Cc1ccc(/C=N/c2ccc(N(C)C)cc2)o1
[15]
  EC50: 58 µM (active)
[16]
  EC50: 1.12 µM (active)
[17]
  EC50: > 60 µM (not active)
[6]
  IC50: > 100 µM (inactive)
[7]
  IC50: 18.1 µM (active)
[18]
  EC50: 42.3 µM (active)

## O=C(CN1CCCN(Cc2ccc(F)cc2Cl)C1=O)NC1CCCCCCC1
[9]
  AC50: 44.3 µM (active)
[12]
  AC50: > 70 µM (inactive)
[13]
  AC50: 30.1 µM (active)

## O=C(COC(=O)CC1CCCC1)Nc1cc2c(cc1Cl)C(=O)c1ccccc1C2=O
[19]
  EC50: 0.438 µM (active)
Estrogen receptor
  IC50: 22.3 µM (active)
[20]
  EC50: 0.497 µM (active)
H4
  EC50: 21.7 µM (active)
[21]
  EC50: 2.27 µM (active)
[22]
  EC50: < 0.1 µM (inconclusive)

## Cc1ccc2nc(SCC(=O)N3CCCC3)nc(=O)n2c1
[3]
  IC50: 45.2 µM (inactive)
